Test results published in patent US11566007B2, “Ras inhibitors” (Revolution Medicines, Inc., priority 2019, dated 2023).

What was measured:
K-Ras G12C = K-Ras G12C (Homo sapiens (Human), UniProt P01116+P62937, G12C); test: Ras-Raf (BRAF RBD) disruption / FRET / MOA assay, KRAS G12C; format: biochemical; conditions: KRAS G12C; Ras-Raf disruption/FRET/MOA assay; read-out: IC50* KRAS G12C FRET data
How it was run: (§1)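 Ternary complex formation (Ras–compound–cyclophilin A) displacing BRAF RBD, monitored by TR-FRET. Three hours at 25° C with compound (top 30 μM final), then 1.5 h with the labelled antibodies. Lower ratio than DMSO indicates disruption; IC50 reported.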

KRAS WT = KRAS WT (Homo sapiens (Human), UniProt P01116+P62937); test: Ras-Raf (BRAF RBD) disruption / FRET / MOA assay, KRAS WT; format: biochemical; conditions: read-out: IC50* KRAS WT FRET data
How it was run: as §1

Sequence of KRAS WT (P01116-2 other isoform, or with tags, fused parts or gaps): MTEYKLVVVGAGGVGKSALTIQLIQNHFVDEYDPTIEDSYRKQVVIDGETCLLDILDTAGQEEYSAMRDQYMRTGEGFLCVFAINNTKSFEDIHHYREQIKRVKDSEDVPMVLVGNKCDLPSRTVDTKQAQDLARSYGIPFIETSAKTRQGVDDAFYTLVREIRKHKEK
Sequence of KRAS WT (P62937 whole entry): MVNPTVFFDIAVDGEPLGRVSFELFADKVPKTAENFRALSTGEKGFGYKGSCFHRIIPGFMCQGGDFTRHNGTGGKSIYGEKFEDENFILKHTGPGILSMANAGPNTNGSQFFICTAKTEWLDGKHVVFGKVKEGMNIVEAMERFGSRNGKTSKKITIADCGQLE
Sequence of K-Ras G12C (P01116-2 other isoform, or with tags, fused parts or gaps G12C): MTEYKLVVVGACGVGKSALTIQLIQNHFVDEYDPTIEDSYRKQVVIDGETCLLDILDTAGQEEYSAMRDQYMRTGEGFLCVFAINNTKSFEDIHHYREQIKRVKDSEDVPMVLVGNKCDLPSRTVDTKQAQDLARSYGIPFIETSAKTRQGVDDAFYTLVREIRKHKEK
Sequence of K-Ras G12C (P62937 whole entry): as the sequence (P62937 whole entry) above

| SMILES | IC50 (K-Ras G12C) | IC50 (KRAS WT) |
| --- | --- | --- |
| CCn1c(-c2cccnc2[C@H](C)OC)c2c3cc(ccc31)-c1csc(n1)C[C@H](NC(=O)[C@H](C(C)C)N(C)C(=O)N1CCC3(CC1)CN(C(=O)/C=C/CN1CCOCC1)C3)C(=O)N1CCC[C@H](N1)C(=O)OCC(C)(C)C2 (atropisomer, axis not shown) [Example A669] | 10 to 100 nM | 100 to 1000 nM |
| CCn1c(-c2cccnc2[C@H](C)OC)c2c3cc(ccc31)-c1csc(n1)C[C@H](NC(=O)[C@H](C(C)C)N(C)C(=O)N1CCC3(CC1)CN(C(=O)/C=C/CN1CCCCC1)C3)C(=O)N1CCC[C@H](N1)C(=O)OCC(C)(C)C2 (atropisomer, axis not shown) [Example A670] | 100 to 1000 nM | 100 to 1000 nM |
| C/C=C/C(=O)N1CC2(CCN(C(=O)N(C)[C@H](C(=O)N[C@H]3Cc4nc(cs4)-c4ccc5c(c4)c(c(-c4cccnc4[C@H](C)OC)n5CC)CC(C)(C)COC(=O)[C@@H]4CCCN(N4)C3=O)C(C)C)CC2)C1 (atropisomer, axis not shown) [Example A671] | 10 to 100 nM | 100 to 1000 nM |
| CCn1c(-c2cccnc2[C@H](C)OC)c2c3cc(ccc31)-c1nc(co1)C[C@H](NC(=O)[C@@H](COC1CN(C(=O)C#CC(C)(C)N(C)C)C1)C(C)C)C(=O)N1CCC[C@H](N1)C(=O)OCC(C)(C)C2 (atropisomer, axis not shown) [Example A675, (2R)-2-(((1-(4-(dimethylamino)-4-methylpent-2-ynoyl)azetidin-3-yl)oxy)methyl)-N-((6^3S,4S,Z)-1^1-ethyl-1^2-(2-((S)-1-methoxyethyl)pyridin-3-yl)-10,10-dimethyl-5,7-dioxo-6^1,6^2,6^3,6^4,6^5,6^6-hexahydro-1^1H-8-oxa-2(2,4)-oxazola-1(5,3)-indola-6(1,3)-pyridazinacycloundecaphane-4-yl)-3-methylbutanamide] | 10 to 100 nM | > 10000 nM |
| C=CC(=O)N1CCN(C(=O)N(C)[C@H](C(=O)N[C@H]2Cc3nc(cs3)-c3ccc4c(c3)c(c(-c3cccnc3[C@H](C)OC)n4CC(F)(F)F)CC(C)(C)COC(=O)[C@@H]3CCCN(N3)C2=O)C(C)C)CC12CC2 (atropisomer, axis not shown) [Example A679] | 10 to 100 nM | 10 to 100 nM |
| C=C(OC)C(=O)N1CC2(CCN(C(=O)N(C)[C@H](C(=O)N[C@H]3Cc4nc(cs4)-c4ccc5c(c4)c(c(-c4cccnc4[C@H](C)OC)n5CC)CC(C)(C)COC(=O)[C@@H]4CCCN(N4)C3=O)C(C)C)CC2)C1 (atropisomer, axis not shown) [Example A681] | 10 to 100 nM | 100 to 1000 nM |
| C=C(F)C(=O)N1CC2(CCN(C(=O)N(C)[C@H](C(=O)N[C@H]3Cc4nc(cs4)-c4ccc5c(c4)c(c(-c4cccnc4[C@H](C)OC)n5CC)CC(C)(C)COC(=O)[C@@H]4CCCN(N4)C3=O)C(C)C)CC2)C1 (atropisomer, axis not shown) [Example A682] | 10 to 100 nM | 100 to 1000 nM |
| C=CC(=O)N1CC2(CCN2C(=O)N(C)[C@H](C(=O)N[C@H]2Cc3cccc(c3)-c3ccc4c(c3)c(c(-c3cccnc3[C@H](C)OC)n4CC)CC(C)(C)COC(=O)[C@@H]3CCCN(N3)C2=O)C(C)C)C1 (atropisomer, axis not shown) [Example A684] | < 10 nM | 100 to 1000 nM |
| C=CC(=O)N1C[C@H]2CN(C(=O)N(C)[C@H](C(=O)N[C@H]3Cc4nc(cs4)-c4ccc5c(c4)c(c(-c4cccnc4[C@H](C)OC)n5CC)CC(C)(C)COC(=O)[C@@H]4CCCN(N4)C3=O)C(C)C)[C@H]2C1 (atropisomer, axis not shown) [Example A686] | 10 to 100 nM | 100 to 1000 nM |
| C=CC(=O)N1CC[C@H]2[C@@H](C1)CN2C(=O)N(C)[C@H](C(=O)N[C@H]1Cc2nc(cs2)-c2ccc3c(c2)c(c(-c2cccnc2[C@H](C)OC)n3CC)CC(C)(C)COC(=O)[C@@H]2CCCN(N2)C1=O)C(C)C (atropisomer, axis not shown) [Example A687] | 100 to 1000 nM | 100 to 1000 nM |
| CCn1c(-c2cccnc2[C@H](C)OC)c2c3cc(ccc31)-c1csc(n1)C[C@H](NC(=O)C[C@@H]1COC3(CN(C(=O)C#CC(C)(C)N(C)C)C3)O1)C(=O)N1CCC[C@H](N1)C(=O)OCC(C)(C)C2 (atropisomer, axis not shown) [Example A691] | < 10 nM | 1000 to 10000 nM |
| CCn1c(-c2cccnc2[C@H](C)OC)c2c3cc(ccc31)-c1cnc(o1)C[C@H](NC(=O)[C@H](C(C)C)N(C)C(=O)[C@H]1CCN(C(=O)C#CC(C)(C)N(C)C)C1)C(=O)N1CCC[C@H](N1)C(=O)OCC(C)(C)C2 (atropisomer, axis not shown) [Example A692, (3S)-1-(4-(dimethylamino)-4-methylpent-2-ynoyl)-N-((2S)-1-(((6^3S,4S)-1^1-ethyl-1^2-(2-((S)-1-methoxyethyl)pyridin-3-yl)-10,10-dimethyl-5,7-dioxo-6^1,6^2,6^3,6^4,6^5,6^6-hexahydro-1^1H-8-oxa-2(5,2)-oxazola-1(5,3)-indola-6(1,3)-pyridazinacycloundecaphane-4-yl)amino)-3-methyl-1-oxobutan-2-yl)-N-methylpyrrolidine-3-carboxamide] | < 10 nM | 1000 to 10000 nM |
| C=CC(=O)N1CCOC2(CCN(C(=O)N(C)[C@H](C(=O)N[C@H]3Cc4nc(cs4)-c4ccc5c(c4)c(c(-c4cccnc4[C@H](C)OC)n5CC)CC(C)(C)COC(=O)[C@@H]4CCCN(N4)C3=O)C(C)C)CC2)C1 (atropisomer, axis not shown) [Example A695] | 100 to 1000 nM | 100 to 1000 nM |
| C=CC(=O)N1CCC2(CC1)CCN(C(=O)N(C)[C@H](C(=O)N[C@H]1Cc3nc(cs3)-c3ccc4c(c3)c(c(-c3cccnc3[C@H](C)OC)n4CC)CC(C)(C)COC(=O)[C@@H]3CCCN(N3)C1=O)C(C)C)CC2 (atropisomer, axis not shown) [Example A697] | 10 to 100 nM | 100 to 1000 nM |
| C=CC(=O)N1CCC(F)(C(=O)N(C)[C@H](C(=O)N[C@H]2Cc3nc(cs3)-c3ccc4c(c3)c(c(-c3cccnc3[C@H](C)OC)n4CC)CC(C)(C)COC(=O)[C@@H]3CCCN(N3)C2=O)C(C)C)CC1 (atropisomer, axis not shown) [Example A700] | 10 to 100 nM | 100 to 1000 nM |
| C=CC(=O)N1CCO[C@H]2CN(C(=O)N(C)[C@H](C(=O)N[C@H]3Cc4nc(cs4)-c4ccc5c(c4)c(c(-c4cccnc4[C@H](C)OC)n5CC)CC(C)(C)COC(=O)[C@@H]4CCCN(N4)C3=O)C(C)C)C[C@H]21 (atropisomer, axis not shown) [Example A706] | 10 to 100 nM | 1000 to 10000 nM |
| CO[C@@H](C)c1ncccc1-c1c2c3cc(ccc3n1CC(F)(F)F)-c1cnc(o1)C[C@H](NC(=O)[C@H](C(C)C)N(C)C(=O)[C@H]1CCN(C(=O)C#CC(C)(C)N(C)C)C1)C(=O)N1CCC[C@H](N1)C(=O)OCC(C)(C)C2 (atropisomer, axis not shown) [Example A707] | < 10 nM | 1000 to 10000 nM |
| CO[C@@H](C)c1ncccc1-c1c2c3nc(ccc3n1CC(F)(F)F)-c1cccc(c1)C[C@H](NC(=O)[C@@H](COC1CN(C(=O)C#CC(C)(C)N(C)C)C1)C(C)C)C(=O)N1CCC[C@H](N1)C(=O)OCC(C)(C)C2 (atropisomer, axis not shown) [Example A724] | 10 to 100 nM | > 10000 nM |
| CCn1c(-c2cccnc2[C@H](C)OC)c2c3cc(ccc31)-c1cccc(c1)C[C@H](NC(=O)[C@H](C(C)C)N1CO[C@@]3(CCN(C(=O)C#CC(C)(C)N4CCC4)C3)C1=O)C(=O)N1CCC[C@H](N1)C(=O)OCC(C)(C)C2 (atropisomer, axis not shown) [Example A733] | 10 to 100 nM | > 10000 nM |
| C=CC(=O)N1CCN(C(=O)N(C)[C@H](C(=O)N[C@H]2Cc3nc(cs3)-c3ccc4c(c3)c(c(-c3cccnc3[C@H](C)OC)n4CC)CC(C)(C)COC(=O)[C@@H]3CCCN(N3)C2=O)C(C)C)[C@@H]2C[C@@H]21 (atropisomer, axis not shown) [Example A736] | 10 to 100 nM | 10 to 100 nM |
| C=CC(=O)C1CC[C@H](C(=O)N(C)[C@H](C(=O)N[C@H]2Cc3cc(O)cc(c3)-c3ccc4c(c3)c(c(-c3cnn(C)c3[C@H](C)OC)n4CC)CC(C)(C)COC(=O)[C@@H]3CCCN(N3)C2=O)C(C)C)C1 (stereo partly shown) [Example A166] | 10 to 100 nM | 100 to 1000 nM |
| C=CC(=O)N1CC[C@H](C(=O)N(C)[C@H](C(=O)N[C@H]2Cc3cc(O)cc(c3)-c3ccc4c(c3)c(c(-c3cncc5c3[C@@H](OC)CC5)n4CC)CC(C)(C)COC(=O)[C@@H]3CCCN(N3)C2=O)C(C)C)C1 [Example A275] | 10 to 100 nM | 100 to 1000 nM |
| C=CC(=O)N1CC[C@H](C(=O)N(C)[C@H](C(=O)N[C@H]2Cc3nc(ns3)-c3ccc4c(c3)c(c(-c3cncnc3)n4CC)CC(C)(C)COC(=O)[C@@H]3CCCN(N3)C2=O)C(C)C)C1 [Example A285] | > 10000 nM | > 10000 nM |
| C=CC(=O)N1CC[C@H](C(=O)N(C)[C@H](C(=O)N[C@H]2Cc3cc(O)cc(c3)-c3ccc4c(c3)c(c(-c3cnn5c3[C@@H](OC)CCC5)n4CC)CC(C)(C)COC(=O)[C@@H]3CCCN(N3)C2=O)C(C)C)C1 [Example A300] | < 10 nM | 10 to 100 nM |
| CCn1c(-c2cccnc2[C@H](C)OC)c2c3cc(ccc31)-c1cccc(c1)C[C@H](NC(=O)C(COC1CN(C(=O)C#CC(C)(C)N(C)C)C1)C(C)C)C(=O)N1CCC[C@H](N1)C(=O)OCC(C)(C)C2 (stereo partly drawn) [Example A316, (2R)-2-(((1-(4-(dimethylamino)-4-methylpent-2-ynoyl)azetidin-3-yl)oxy)methyl)-N-((6^3S,4S)-1^1-ethyl-1^2-(2-((S)-1-methoxyethyl)pyridin-3-yl)-10,10-dimethyl-5,7-dioxo-6^1,6^2,6^3,6^4,6^5,6^6-hexahydro-1^1H-8-oxa-1(5,3)-indola-6(1,3)-pyridazina-2(1,3)-benzenacycloundecaphane-4-yl)-3-methylbutanamide] | < 10 nM | > 10000 nM |
| C=CC(=O)N1CCC(C(=O)N(C)[C@H](C(=O)N[C@H]2Cc3cc(CF)cc(c3)-c3ccc4c(c3)c(c(-c3cccnc3[C@H](C)OC)n4CC(F)(F)F)CC(C)(C)COC(=O)[C@@H]3CCCN(N3)C2=O)C(C)C)C1 (stereo partly shown) [Example A659] | 10 to 100 nM | 100 to 1000 nM |
